In data set [1] the test system is mice. In words: Single dose toxicity test by administration to mice. The settings on record: intraperitoneal 250, 500 and 1,000 mg/kg; 14 days. In kind it is in vivo. The protocol:
A single dose toxicity test by intraperitoneal administration of the carboxylic acid type of the compounds of the present invention to mice was carried out. Male mice of ddY strain of four weeks age were made into groups of five mice so as to make mean body weight in each group nearly the same. Carboxylic acid type A as a test substance was intraperitoneally administered at the doses of 250 mg/kg, 500 mg/kg and 1,000 mg/kg.

Data set [2] has as its system rats. In words: Hyperalgesia in osteoarthritis model induced by monoiodoacetic acid into joints of rats. The format is in vivo. Particulars: oral administration of 1 mg/kg.
On the set-up of data set [3]: species or system cynomolgus monkeys. The settings on record: cynomolgus monkey, in vivo, 30 mg/kg. On the procedure: Each of the compound of the present invention and Carboxylic acid type A thereof dissolved or suspended in a hydrochloric acid solution was diluted with water. […] At the stages of before the administration and of 0.25, 0.5, 1, 2, 4, 8 and 24 hour(s) after the administration, the blood was collected from femoral vein using a syringe to which heparin was added followed by subjecting to centrifugation to collect the plasma. Collection of the blood was conducted for three times in total where one collection was done with each blank term of six days for each test substance. Concentration of Carboxylic acid type A in each of the collected plasma samples was quantified by an LC-MS and Cmax (maximum drug concentration in plasma) and AUC (area under blood concentration time curve; 0 to ∞ hour(s)) of the compound of the present invention and Carboxylic acid type A thereof were calculated.

Data set [4] has as its system SART stressed mouse. In words: Test for analgesic effect (1): SART stressed mouse, modified Randall-Selitto tail pressure method. In kind it is in vivo, mice.
In data set [5] the test system is Chung model rat. In words: Test for analgesic effect (2)/(3): Chung model rat, mechanical allodynia by von Frey filament. The format is in vivo, rats. On the procedure:
A test for analgesic effect was conducted using a Chung model rat which is a neuropathic pain model. As to the test animal, male rats of Wistar strain of nine weeks age were used and model rats were prepared in accordance with the method of Kim and Chung (Pain, vol. 50, pages 355 to 363, 1992). Thus, under anesthetization with pentobarbital (40 mg/kg, intraperitoneal administration), rat L5 spinal nerve was exposed and L5 dorsal root ganglion periphery side was strongly ligated using 5-0 silk yarn. The animals were placed in a transparent acrylate cage whose bottom was made of wire net, a 50% reaction threshold value was calculated by an up-down method using a von Frey filament (manufactured by North Coast Medical Inc.) according to the methods of Chaplan, et al. (J. Neurosci. Method, vol. 53, pages 55 to 63, 1994) and by Lee, et al. (J. Neurophysiol., vol. 81, pages 2226 to 2233, 1999) and measurement of allodynia was conducted. Before injury of spinal nerve, the 50% reaction threshold value was measured twice and the animals where the threshold value was outside the standard were excluded from the operation for spinal nerve injury. […] Those test animals were made into groups of seven animals so that the mean value of 50% reaction threshold after 28 days from the nerve injury as an index became nearly the same in each group.
The carboxylic acid type of the compounds of the present invention as a test substance was intraperitoneally administered in a single dose while, a 0.5% CMC-Na/physiological saline solution was administered similarly to a nerve injury control group. After 30 minutes from the administration of the test substance, allodynia was measured to calculate a 50% reaction threshold value. With regard to a significance test, Paired t-test was conducted for comparison between before and after the nerve injury and Dunnett's multiple comparison test was used for comparison among multiple groups of the nerve injury control group and the test substance administration group.
According to the same manner as in the above Test for Analgesic Effect (2), each of Compound 12 of the present invention (3 mg/kg, 10 mg/kg) and Carboxylic acid substance A of the compound of the present invention (10 mg/kg) was orally administered in a single dose as the test substance to Chung model rats. Allodynia after 0, 15, 30, 60 and 120 minutes from the administration was measured for each of the test substance administration group and the nerve injury control group whereupon a 50% reaction threshold value was calculated.

Data set [6] relates to rats. In words: Formalin pain test for rats, second phase. The settings on record: oral administration of 100 mg/kg. In kind it is in vivo.
For data set [7], the system named is mice. In words: Test for analgesic effect (4): acetic acid writhing test. In kind it is in vivo. The settings on record: oral single dose; 0.7% acetic acid i.p. 25 minutes after; writhing numbers during 10 minutes. The protocol:
The compounds of the present invention or the carboxylic acid type thereof were orally administered to mice and a test for an analgesic effect was carried out by means of an acetic acid writhing test. As to the test animals, male mice of ddY strain of four weeks age were subjected to a preliminary breeding and they were used where one group comprised ten mice. Each of the compound of the present invention or the carboxylic acid type thereof as a test substance was orally administered in a single dose while, to a control group, distilled water (water for injection) was administered similarly. After 25 minutes from the administration of the test substance, a 0.7% acetic acid/physiological saline was intraperitoneally administered at the dose of 10 mL/kg. From 5 minutes thereafter, writhing numbers during 10 minutes were counted and a suppressive rate for each mouse was calculated according to the following formula. Suppressive Rate (%)=[(Mean writhing numbers of the control group)−(Writhing numbers of each mouse)]÷[Mean writhing numbers of the control group]×100

Data set [8] is described as follows: Test of kinetics in blood of rats. In kind it is in vivo. The settings on record: rat, in vivo, po, 10 mg/kg. The protocol:
Each of the compound of the present invention and the carboxylic acid type A thereof was dissolved in DMSO, diluted with water. A sample solution (1% DMSO solution) made into 2 mg/mL was orally administered in a single dose to the fasted Wistar strain SPF male rats of seven weeks age using a stomach tube (10 mg/5 mL/kg). At the stages of 0.25, 0.5, 1, 2, 4 and 8 hour(s) after the administration, about 150 μL of the blood was collected from tail vein using a capillary to which heparin was added and said capillary was centrifuged to collect the plasma. Protein was removed from the plasma sample and the supernatant liquid was diluted to prepare each sample solution for the measurement.

Setting [9] is: intraperitoneally administered 100 μg/kg to mice.

Like-named read-outs stand apart in the source and are kept apart here.

As to `C=CC(=O)N[C@@H](Cc1cncn1C)C(=O)O` [Carboxylic acid type A, N^α-acryloyl-N^π-methyl-L-histidine], the death entry in data set [1] is “no death case”. The “analgesic effect on hyperalgesia” value in data set [2] is given as “significant analgesic effect”. Moreover, in data set [3], the “AUC” value was determined as 2356.9 ng·h/mL and the “Cmax” value came out at 410.8 ng/mL. In data set [4] (25 ng per mouse into the lateral ventricle, 30 minutes after administration, pain threshold of test group divided by that of SART control group, 1.0 = no effect), this compound showed an Analgesic coefficient of 1.33. In data set [4] (setting [9]), this compound showed an Analgesic coefficient of 1.24 and a pain threshold value of 97.8 g. For the same compound, the analgesic action result in data set [4] (oral administration in mice, dose of 3 and 10 mg/kg, peak after 30 minutes) is given as “significant analgesic action”. For the same compound, the “ED50 value determined from the improving rate at peak of action” value in data set [4] (oral administration in mice, peak after 30 minutes) stood at 2.7 mg/kg. Besides, the “threshold as compared with the nerve injury control group” value in data set [5] (intraperitoneal single dose) is on record as “significant increase in the threshold”. Moreover, the “50% reaction threshold value” in data set [5] (intraperitoneally 100 μg/kg single dose, 30 minutes after administration) is 9.60 g. Moreover, the “anti-allodynia action to mechanical allodynia” value in data set [5] (oral administration, dose of 10 mg/kg, peak after 30 minutes) was “significant anti-allodynia action”. Also, the “ED50 value determined from the improving rate at the peak of the action” value in data set [5] (oral administration, peak after 30 minutes) amounted to 2.4 mg/kg. Further, the “anti-allodynia action as compared with the nerve injury control group” value in data set [5] (oral single dose (Compound 12: 3 and 10 mg/kg; Carboxylic acid type A: 10 mg/kg), 15, 30 and 60 minutes after administration, FIG. 1) is reported as “significant anti-allodynia action”. Besides, the “analgesic action against pain reaction in the second phase” value in data set [6] is “significant analgesic action”. For the same compound, the “Suppressive Rate (%)” value in data set [7] is 33.1%. Besides, in data set [8], the “AUC” value turned out to be 1339.4 ng·h/mL and the “Cmax” value came to 372.5 ng/mL.

For the origin of these results see US8324261B2, “Histidine derivatives” (Nippon Zoki Pharmaceutical Co., Ltd., priority 2007, dated 2012).
